Assay results from patent publication US6376175B1, “Methods of discovering chemicals capable of functioning as gene expression modulators” (OSI Pharmaceuticals, Inc., priority 1989, dated 2002).

Assays:
GM-CSF mRNA = experiment: S1 nuclease protection, GM-CSF mRNA in 5637 cells; assay type: cell-based, human; conditions: 18 hours, low, medium and high concentrations
Experimental: (§1) S1 Nuclease protection assays were carried out as described in reference 94.
(§2) To further confirm, that compounds that had been identified in a luciferase expression assay using a G-CSF specific reporter cell line would be active in inducing transcription of the endogenous G-CSF gene, cells from the parental cell line 5637 used to construct the reporter cell line were incubated with cycloheximide (25 microg/ml), DMSO (0.5%, solvent control) and low, medium and high concentrations of the compounds 542 (10, 50, 250 microM),1255 (20, 100, 500 microM), 1793(0.25, 1.2, 6.25 microM) and 1904 (20, 100 microM) for 18 hours. RNA was extracted and the concentration of G-CSF, GM-CSF and gamma-actin mRNA was determined by the S1 protection method as described in Materials and Methods. The positions of G-CSF GM-CSF and gamma-actin specific protected fragments are indicated (G, GM, A) at the left side of the gel (FIG. 54).

endogenous G-CSF mRNA = experiment: Northern blot of endogenous G-CSF mRNA in 5637 cells; assay type: cell-based, human; conditions: compared to solvent DMSO, normalized with beta-actin probe
Experimental: Total cellular RNA was isolated from the G21 cell clone or from untransfected 5637 cells following incubation for 6 hours with various transcriptionally modulating chemicals identified in the high-throughput screen. Cells were grown in serum free medium as described above. Total cellular RNA was isolated using the RNAZol method (CINNA/BIOTECX, Friendswood, Tex., Laboratories International, Inc.). Cells were resuspended and lysed with RNAZol solution (1.5 ml/9 cm petri dish) and the RNA was solubilized by passing the lysate a few times through a pipette. Chloroform was added to the homogenate (0.1 ml/1 ml), and samples were shaken for 15 seconds followed by a 5 minutes incubatoin on ice. After centrifuging for 10 minutes, the upper phase was collected and an equal volume of isopropanol was added. Samples were incubated for 45 minutes at −20 C, and the RNA was pelleted for 15 minutes at 12,000×g at 4 C. The RNA pellet was then washed with 70% ethanol and dried briefly under vacuum.
Total cellular RNA was isolated from 5637 cells following incubation with chemicals as described above and electrophoresed in a 1% Agarose-[…] Formaldehyde gel. The RNA was transferred to Duralon-UV nylon filters (Stratagene, La Jolla, Calif.) using the manufacturer's recommended protocol. The filters were prehybridized for 4 hours (prehybridizing solution=5X SSC, 50 mM sodium pyrophosphate, 10X Denhardt's solution, 10% dextran sulfate, 7% and 250 µg/ml denatured ssDNA) and then hybridized in the same solution for 16 hours at 65 C in the presence of G-CSF or Beta-Actin (Oncor, Gaithersburg, Md.) specific probes. The G-CSF probe was a 0.6 kb AflII o Xhol fragment which contained most of exon 5 of the human G-CSF gene. The B-actin probe was used as a control probe to normalize for the total amount of RNA. […] Bands were excised and counted in a liquid scintillation counter (LKB, Gaithersburg, Md.), and counts obtained with the G-CSF specific probe were normalized relative to the counts obtained with the B-Actin specific probe. […]

G-CSF mRNA = experiment: S1 nuclease protection, G-CSF mRNA in 5637 cells; assay type: cell-based, human; conditions: 18 hours, 542 (10, 50, 250 microM), 1255 (20, 100, 500 microM), 1793 (0.25, 1.2, 6.25 microM), 1904 (20, 100 microM)
Experimental: as §1, §2

secreted G-CSF protein = experiment: Two-antibody sandwich immunoassay of G-CSF secreted by 5637 bladder carcinoma cells; assay type: cell-based, human; conditions: 5637 cells, 48 hours, serum-containing media; TNF-alpha 5 ng/ml; #542 50 uM; #1780 1 uM and 0.2 uM; FIG. 55
Experimental: Supernatants from 5637 bladder carcinoma cells incubated with chemicals registering as positives in the G-CSF promoter/luciferase High-Throughput assay were assayed for secreted G-CSF protein using the two-antibody sandwich immunoassay (96). The G-CSF Assay kit manufactured by Oncogene Science, Inc. was used and the manufacturer's instructions were followed.
The levels of G-CSF in the cell supernatants were determined by a sandwich-antibody assay as described in Materials and Methods (FIG. 55).

FRE cells = assay type: cell-based
Experimental: To determine cytotoxic concentrations of chemicals registering as positives in the High-Throughput luciferase assay the MTT cytotoxicity assay was employed (95). In this assay, a tetrazolium salt [3-(4,5-dimethylthiazol-2-yl)-2,5-diphenyl-tetrazolium bromide, MTT] is reduced to a colored formazan product by reducing enzymes present only in living metabolically active cells.
Cells were seeded into 96 well microtiterplates (20 000 cells/well) and cultured overnight. Compound #542 was added at various concentrations and the cells were incubated for 6 hours. Luciferase activity was determined as described in Materials and Methods. The MTT-colorimetric assay was carried out on identically treated samples of FRE cells. Induction of luciferase reporter signal (plain line) and on inhibition of respiration (dashed line) are plotted versus the concentrations of compound (FIG. 56). The ED50 for induction of luciferase activity differed from the ED50 for inhibition of respiration by a factor of almost 10, which might indicate that compound #542 exerts a specific effect on G- and GM-CSF transcription.

Molecule	amount of GM-CSF mRNA (S1 protection) (GM-CSF mRNA)	endogenous G-CSF mRNA production (Northern blot) (endogenous G-CSF mRNA)	amount of G-CSF mRNA (S1 protection) (G-CSF mRNA)	other results
O=c1[nH]c(=O)n([C@H]2C[C@H](O)[C@@H](CO)O2)cc1Br [Chemical 543, 5-Bromo-2′-deoxyuridine]	showed similar activity			
CN(C)c1ccc(C(=C2C=CC(=[N+](C)C)C=C2)c2ccc([N+](C)(C)C)cc2)cc1.[Cl-].[Cl-] [Chemical 670, Methyl Green]		stimulated production of G-CSF mRNA		
Clc1cc(Cl)cc(Br)c1 [Chemical 1255, 1-Bromo-3,5-dichlorobenzene]		stimulated production of G-CSF mRNA	increased mRNA production	
Nc1nc(=O)n([C@H]2C[C@H](O)[C@@H](CO)O2)cc1Br [Chemical 542, 5-Bromo-2′-deoxycytidine]	increased the amount of GM-CSF mRNA		increased mRNA production	G-CSF secretion into media (secreted G-CSF protein): increased G-CSF secretion; factor between ED50 for induction of luciferase activity (G21) and ED50 for inhibition of respiration (FRE cells) (FRE cells): ~10
CN(C)c1ccc(C(=C2C=CC(=[N+](C)C)C=C2)c2ccc(N(C)C)cc2)cc1 [Chemical 1780, Crystal Violet]				G-CSF secretion into media (secreted G-CSF protein): increased G-CSF secretion
Cl.Nc1c2ccccc2nc2ccccc12 [Chemical 1904, 9-Aminoacridine hydrochloride]			increased mRNA production	
CN(C)C(=S)SCC#N [Chemical 1793, Cyanomethyl-N,N-dimethyl dithiocarbomate]	increased the amount of GM-CSF mRNA		increased mRNA production	
Interferon-gamma: proteinaceous positive regulator (protein, UniProt P01579 24-161, looked up) Interferon gamma: QDPYVKEAENLKKYFNAGHSDVADNGTLFLGILKNWKEESDRKIMQSQIVSFYFKLFKNFKDDQSIQKSVETIKEDMNVKFFNSNKKKRDDFEKLTNYSVTDLNVQRKAIHELIQVMAELSPAAKTGKRKRSQMLFRG		increased G-CSF mRNA production		
